Data taken from patent publication US6413956B1, “Substituted 4-oxo-quinoline-3-carboxamides” (Neurogen Corporation, priority 1999, dated 2002).

In the case of `CCOc1ccc2[nH]cc(C(=O)NCCC(C)C)c(=O)c2c1` [compound 45, N-Isoamyl 6-ethoxy-4-oxo-1,4-dihydro-quinoline-3-carboxamide], the melting point is reported as 180 to 183 °C. `Cc1nc(Cc2ccc(CNC(=O)c3c[nH]c4ccc(F)cc4c3=O)cc2)c[nH]1.Cl` gave a melting point of 120 to 122 °C. `CCCCNC(=O)c1c[nH]c2ccc(COC)cc2c1=O` [compound 34, N-Butyl 6-methoxymethyl-4-oxo-1,4-dihydro-quinoline-3-carboxamide] gave a melting point of 157 to 159 °C. In the case of `CCOc1ccc2[nH]cc(C(=O)NCc3ccc(CN4CCCC4)cc3)c(=O)c2c1` [compound 103, N-{4-[(1-Pyrrolidinyl)methyl]benzyl} 6-ethoxy-4-oxo-1,4-dihydroquinoline-3-carboxamide], the melting point is reported as 168 to 171 °C. `CCOc1ccc2[nH]cc(C(=O)NCc3cccs3)c(=O)c2c1` [compound 41, N-[(2-Thienyl)methyl] 6-ethoxy-4-oxo-1,4-dihydro-quinoline-3-carboxamide] gave a melting point of 223 to 224 °C. With `O=C(NCC1CCCO1)c1c[nH]c2ccccc2c1=O` (centres unmarked) [compound 1, N-tetrahydrofurfuryl 4-oxo-1,4-dihydro-quinoline-3-carboxamide] the melting point was 205 to 209 °C. `O=C(NCc1ccccc1)c1c[nH]c2ccccc2c1=O` [compound 5, N-Benzyl 4-oxo-1,4-dihydro-quinoline-3-carboxamide] showed a melting point of 173 °C. With `CCCCCNC(=O)c1c[nH]c2ccc(OCC)cc2c1=O` [compound 54, N-Pentyl 6-ethoxy-4-oxo-1,4-dihydro-quinoline-3-carboxamide] the melting point was 180 to 183 °C. With `CCCCNC(=O)c1c[nH]c2ccc(OCC)cc2c1=O` [compound 53, N-Butyl 6-ethoxy-4-oxo-1,4-dihydro-quinoline-3-carboxamide] the melting point was 190 to 191 °C. In the case of `CCOCCCNC(=O)c1c[nH]c2ccc(OCC)cc2c1=O` [compound 42, N-[(3-Ethoxy)propyl] 6-ethoxy-4-oxo-1,4-dihydro-quinoline-3-carboxamide], the melting point is reported as 179 to 181 °C. Compound `CCOc1ccc2[nH]cc(C(=O)NCCCOC)c(=O)c2c1` [compound 48, N-[(3-Methoxy)propyl] 6-ethoxy-4-oxo-1,4-dihydro-quinoline-3-carboxamide] has a melting point of 175 to 177 °C.
